In PubChem BioAssay AID463074 (Broad Institute, 2010):
Activity calls are given as the source filed them.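 The calls were made as follows: active = AC50 no more than tenfold above the top dose tested, or full inhibition at every dose with a flat fit (cut at about 19 µM in these data); inconclusive = flat curve fit with inhibition between 30% and 70%, or poor fit; inactive = AC50 more than tenfold above the top dose tested.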

test system: HMLE_sh_eGFP viability, CellTiter-Glo luminescence, 72 h; test: cytotoxicity in HMLE control line with eGFP shRNA, dose response, counter-screen for HMLE_sh_ECad selective toxicity project, cell-based, HMLE_sh_eGFP, luminescence (AID 463074);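 also: counterscreen control line to flag general toxicity for the HMLE_sh_ECad screen; potency for loss of viability as luminescence drops below DMSO wells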

Row | SMILES | AC50
1 | CCCCNc1c(-c2ccc(OC)c(Sc3ccc(OC)cc3)c2)nc2ccccn12 | 4.55 µM
2 | CCCSc1nsc(NC(=O)C(c2ccccc2)c2ccccc2)n1 | 3.64 µM
3 | Cn1c2ccccc2c(=O)c2cc(C#Cc3ccccn3)ccc21 | > 19.5 µM (inactive)
4 | Cc1snc(S(=O)(=O)/C(C#N)=N/Nc2ccc(C(F)(F)F)cc2)c1C#N | 19.7 µM
5 | O=S(=O)([N-]c1nc2ccccc2nc1-[n+]1ccc(Cc2ccccc2)cc1)c1ccc(Br)s1 | 6.16 µM
6 | CC1CCCN(CCCOc2ccc(Br)cc2Cl)C1 (centres undefined) | 8.36 µM
7 | CCCn1c(SCC#N)nc2c(c1=O)C1(CCCC1)Cc1ccccc1-2 | 1.52 µM
8 | Oc1ccc(-c2cnc(-c3ccc(O)cc3)nc2)cc1 | 0.304 µM
9 | Cc1ccc(NC(=O)/C=C/c2ccc3c(c2)OCO3)nc1 | 1.16 µM
10 | Oc1ccc(N=Nc2c(O)ccc3ccccc23)cc1 | 5.36 µM
11 | O=C1/C(=C\c2cccc(O)c2O)SC(=S)N1Cc1ccccc1 | 4.85 µM
12 | CCc1ccc(NC(=O)C(CC)Sc2nc3cc4c(cc3c(=O)n2Cc2ccco2)OCO4)cc1 (centres undefined) | 13.1 µM
13 | O=C(NCCN1CCCC1)c1ccc2c(c1)N(Cc1cccc(Cl)c1)C(=O)c1ccccc1S2(=O)=O | > 19.5 µM (inactive)
14 | CC1S/C(=N/N=C/c2cccc([N+](=O)[O-])c2)NC1=O (centres undefined) | 3.48 µM
15 | O=C(c1cc(-c2cccc(O)c2)on1)N1CCN(C(c2ccccc2)c2ccccc2)CC1 | 3.11 µM
16 | CCC(=O)NNc1ccc(Br)cc1 | 6.69 µM
17 | COc1cccc(-c2sc3ccccc3c2-c2ccc(OCCN3CCCC3)cc2)c1 | 2.81 µM
18 | Cc1cc(Nc2ccccc2)nc(-c2ccccc2O)n1 | 7.92 µM
19 | CC[C@@H]1Cc2cc(O)ccc2C2=C1c1ccc(O)cc1C[C@H]2CC | 4.15 µM
20 | COc1cc(CNC2CCCC2)cc(Cl)c1OCc1ccccc1Cl | 6.95 µM
21 | O=C(NNC1=C(C(=O)C(F)(F)F)CCC1)c1ccc(Cl)cc1 | 4.25 µM
22 | O=c1cc(-c2ccccc2)[nH]n1-c1nc2ccccc2s1 | 5.53 µM
23 | C[C@@H]1CC[C@H]2C(=O)N3[C@@H](CC[C@@H](C)[C@@H]3c3ccc(Br)cc3)C(=O)N2[C@H]1c1ccc(Br)cc1 | 4.41 µM
24 | COc1ccc(-c2cn(CCc3c[nH]c4ccccc34)nn2)cc1 | 2.69 µM
25 | COc1ccc(-c2nn(-c3ccccc3)cc2/C=C2/SC(=S)N(CCC(=O)O)C2=O)c(C)c1 | 8.18 µM
26 | Cc1ccc(C)c(NC(=O)CSc2nc3nc(-c4cccs4)cc(C(F)(F)F)c3c(=O)[nH]2)c1 | 4.39 µM

Row | SMILES | AC50
27 | O=C(Nc1ccc(Cl)cc1)Nc1nnc(-c2ccncc2)s1 | 2.42 µM
28 | O=C(O)c1cccc(N/N=C(\N=Nc2ccccc2)c2ccccc2)c1 | 4.25 µM
29 | Cc1cc(N)n(-c2ccc(S(N)(=O)=O)cc2[N+](=O)[O-])n1 | > 19.5 µM (inactive)
30 | O=C1[C@H]2CCCC[C@H]2C(=O)N1CCCCN1CCN(c2nsc3ccccc23)CC1 | 4.51 µM
31 | O=C(Oc1ccc(-c2nc(-c3ccccn3)no2)cc1)c1ccccc1 | 1.63 µM
32 | OCCCn1c(CCNc2nc(-c3ccc(Cl)cc3)cs2)nc2cc(C(F)(F)F)ccc21 | 11.3 µM
33 | O=C(NC(=S)Nc1cccc(Cl)c1N1CCCCC1)c1ccc2c(c1)OCCO2 | 1.52 µM
34 | COc1cccc(Nc2nc(-c3cccs3)nc3ccccc23)c1 | 7.32 µM
35 | O=C(CCCN1C(=O)/C(=C/c2ccccc2)SC1=S)NCCCn1ccnc1 | > 19.5 µM (inactive)
36 | Cc1ccc(OCC(O)Cn2c3ccccc3c3ccccc32)cc1 (centres undefined) | 6.78 µM
37 | CCCOc1ccc2c(c1)C(=NN=C(N)N)c1cc(OCCC)ccc1-2 | 3.7 µM
38 | COc1cc(OC)cc(-c2sc3ccc(OC)cc3c2-c2ccc3cc[nH]c3c2)c1 | 3.34 µM
39 | COC(=O)Nc1ccc(S(=O)(=O)N2c3ccccc3CCC2C)cc1 (centres undefined) | 1.42 µM
40 | Cc1cc(N2CCN(C)CC2)nc2ccc(NC(=S)N3CCN(c4ccc(F)cc4)CC3)cc12 | 5.94 µM
41 | COc1cc(NC(=O)c2csc(N)n2)cc(C(=O)Nc2cccc(C(F)(F)F)c2)c1 | 5.65 µM
42 | CCc1ccc(NC(=O)c2cc3c(C)nc4ccccc4c3o2)cc1 | 11.9 µM
43 | COc1ccc(C2=NN(C(=O)COC(=O)c3ccc(S(C)(=O)=O)c([N+](=O)[O-])c3)C(c3ccco3)C2)cc1 (centres undefined) | 3.84 µM
44 | COc1ccc(-c2sc3ccc(N4CCOCC4)cc3c2C#CCCO)cc1 | 4.73 µM
45 | CC(C)(C)C1CCc2c(sc(NC(=O)CSc3ncn[nH]3)c2C#N)C1 (centres undefined) | 4.79 µM
46 | C=C(CC[C@@H](O)C(C)(C)O)[C@H]1CC[C@]2(C)[C@@H]1CCC1[C@@]3(C)CC[C@H](O)C(C)(C)C3CC[C@]12C (some centres undefined) | 1.13 µM
47 | CC(C)=CCC/C(C)=C/Cc1c(O)ccc(C(=O)/C=C/c2ccc(O)cc2)c1O | 6.42 µM
48 | CCOC(=O)C(=O)NNc1ccc(F)cc1 | 1.45 µM
49 | COc1ccc(C(=O)c2ccc3oc(-c4ccc(OC)cc4)c(-c4ccc(O)cc4)c3c2)cc1 | 3.87 µM
50 | O=C(NC1CCCCC1)C(c1cccnc1)N(C(=O)CCl)c1ccc(F)cc1 (centres undefined) | 3.47 µM
51 | C[C@@H](CSc1ccc(Br)cc1)CN1CC[C@H](NC(=O)OCc2ccccc2)CCC1=O | 5.5 µM
52 | COC(=O)c1ccc(/C=C/c2c(-c3ccc(OC)cc3)oc3ccc(N4CCOCC4)cc23)cc1 | 4.19 µM

Row | SMILES | AC50
53 | Cc1nc(SCc2nc3ccc(C(F)(F)F)cc3[nH]2)c2oc3ccccc3c2n1 | 5.23 µM
54 | Cc1cc(C)c2nc(N3CCCC(C(=O)N4CCN(c5ncccn5)CC4)C3)sc2c1 (centres undefined) | 11.2 µM
55 | CN(C)CCn1c2ccccc2c2nc3ccc([N+](=O)[O-])cc3cc21 | 15.6 µM
56 | CN(C)c1ccc(-n2cccc2/C=C/[N+](=O)[O-])cc1 | 3.63 µM
57 | Cc1ccccc1NC(=O)C(Cl)=C(Cl)Cl | 7.21 µM
58 | CC(C)CC(=O)NC(NC(=S)Nc1sc2c(c1C#N)CCCC2)C(Cl)(Cl)Cl (centres undefined) | 10.6 µM
59 | Cc1cccc(N/N=C(\C(N)=O)C2=NC(C)(C)Cc3ccccc32)c1 | 10.9 µM
60 | CCOC(=O)C(=NCCCN1CCOCC1)NNc1cccc(C(F)(F)F)c1 | 9.13 µM
61 | Cc1cccc(C)c1OCc1cc(C(=O)N2CC3C[C@@H]4CC2C[C@H](C3)C4)no1 | 2.69 µM
62 | CCCCCCSc1cc(-c2nc3cnccn3c2NCCCC)ccc1OC | 6.71 µM
63 | O=C(NNC1=C(C(=O)C(F)(F)F)CCC1)c1cccc(Cl)c1 | 3.64 µM
64 | Cc1ccc(NS(=O)(=O)c2ccc(Cl)c(C(=O)Nc3ccccc3-c3nc4ccccc4[nH]3)c2)cc1C | 1.48 µM
65 | COc1cc2c(cc1NC(=O)Nc1ccc(C)cc1)oc1ccccc12 | 11.3 µM
66 | Oc1ccc(/C=N/Nc2nc(-c3ccc(Cl)cc3)cc(C(F)(F)F)n2)cc1 | 6.82 µM
67 | C/C(=N\Nc1cc(N2CCCCC2)nc(C)n1)c1ccc(Br)cc1 | 5.82 µM
68 | CCOC(=O)N1CCN(CCC(=O)c2ccc(Cl)cc2)CC1 | 14 µM
69 | O=C(NC(=S)Nc1cccc(Cl)c1N1CCCCC1)c1cccs1 | 6.92 µM
70 | Oc1ccc(N=Nc2ccc(Br)cc2)c(O)c1 | 17.3 µM
71 | Cc1nc2sccn2c(=O)c1CCN1CCC(=C(c2ccc(F)cc2)c2ccc(F)cc2)CC1 | 5.23 µM
72 | CCCCC(CC)CN1C(=O)/C(=C/c2ccncc2)SC1=S (centres undefined) | 6.81 µM
73 | C=C[C@@H]1c2cccc(C)c2N(S(=O)(=O)c2ccc(C)cc2)[C@H](c2ccc(OC(C)=O)cc2)C1(C#N)C#N | 6.71 µM
74 | CC(C)COc1ccc(-c2nn(-c3ccccc3)cc2/C=C2/SC(=S)N(CC(=O)O)C2=O)cc1 | 4.51 µM
75 | COc1ccc(Nc2nc(-c3cccc([N+](=O)[O-])c3)nc3ccccc23)cc1 | 17.8 µM
76 | CC/C(=N\Nc1ccccc1)c1c(O)n(-c2ccccc2)c(=O)[nH]c1=O | 2.16 µM
77 | CCOc1ccc(OCc2cccc(C(=O)Nc3ccc(CN4CCCCC4)cc3)c2)cc1 | 5.38 µM
78 | CN(CC(=O)Nc1cccc(F)c1)C(=O)c1cn(-c2ccccc2)nc1-c1ccc(Cl)cc1 | 3.85 µM

Row | SMILES | AC50
79 | CCN(CC)S(=O)(=O)c1cccc(NC(=O)Nc2cccc(C(F)(F)F)c2)c1 | 3.56 µM
80 | Cc1ccc(C(=O)NC(=C(Cl)Cl)S(=O)(=O)c2ccccc2)cc1 | 3.22 µM
81 | COc1ccc(C[C@H]2CN3C(=NC[C@@H]3Cc3ccccc3)N2CCNC(=O)CCC2CCCCC2)cc1 | 7.04 µM
82 | COc1ccc(Oc2c(Cl)cnn(-c3ccc(Cl)c(Cl)c3)c2=O)cc1 | 3.44 µM
83 | Cc1ccc(-c2nc(NCc3ccco3)c3ccccc3n2)cc1 | 12.4 µM
84 | C[C@H]1CN([C@@H](C)CO)C(=O)Cc2cc(NC(=O)CCC(F)(F)F)ccc2O[C@H]1CN(C)Cc1ccc(-c2ccccc2)cc1 | 6.9 µM
85 | Cc1csc(NC(=S)Nc2cccc(Cl)c2)n1 | 10.4 µM
86 | COc1ccc(-c2cc(=O)n(-c3ccc([N+](=O)[O-])cc3)[nH]2)cc1 | 11.3 µM
87 | CSc1nnc(NC(=O)c2nc(S(=O)(=O)Cc3ccccc3F)ncc2Cl)s1 | 2.92 µM
88 | CC[C@H]1CC2CN3CCc4c([nH]c5c([C@H]6C[C@H]7[C@H](CC)CN(C)[C@@H](Cc8c6[nH]c6ccccc86)[C@H]7C(=O)OC)c(OC)ccc45)C(C(=O)OC)(C2)C13 | 4.25 µM
89 | CC(C)CN=C(NS(=O)(=O)c1ccccc1)C(Cl)(Cl)Cl | 3.27 µM
90 | CC(C)(C)c1cc(-c2nc(N)nc(N)n2)c(O)c(C(C)(C)C)c1 | 3.57 µM
91 | CCCn1nc([N+](=O)[O-])c(C(C#N)c2nc3ccccc3o2)c(Cl)c1=O (centres undefined) | 5.81 µM
92 | COc1ccccc1-c1cn[nH]c1-c1ccc(OCc2ccccc2F)cc1O | 6.88 µM
93 | O=C(Cn1ncc(Cl)c(Cl)c1=O)N1CCN(S(=O)(=O)c2ccc3ccccc3c2)CC1 | 6.11 µM
94 | COc1ccc(Cn2c(SCc3ccccc3C)nc3cc(OC)c(OC)cc3c2=N)cc1 | 3.7 µM
95 | CC(/C=C1\SC(=O)N(CC(=O)Nc2cccc(O)c2)C1=O)=C\c1ccccc1 | 13.6 µM
96 | COc1ccc(/C=C/C(=O)c2ccc([N+](=O)[O-])o2)cc1OC | 2.47 µM
97 | O=C(NCc1ccc2c(c1)OCO2)c1nc(S(=O)(=O)Cc2ccccc2F)ncc1Cl | 6.81 µM
98 | Cc1ccc(OCCSc2nc(NC(C)C)nc(NC(C)C)n2)cc1 | 1.46 µM
99 | COC(=O)c1ccc(CN(c2ccc(C(=O)O)c(O)c2)S(=O)(=O)c2ccc(Cl)c([N+](=O)[O-])c2)cc1 | 3.5 µM
100 | COc1ccc(C(C)NCCC(c2ccc(OC(C)C)cc2)c2ccccc2OC)cc1 (centres undefined) | 5.44 µM
101 | CC1(C)C=Cc2c(c3c(c4c(=O)c(-c5ccc(O)cc5)coc24)OC(C)(C)CC3)O1 | 7.5 µM
102 | COc1cc(/C=C/C(=O)c2ccc3c(c2)OCO3)cc(Cl)c1O | 10.8 µM
103 | O/N=C/c1cc(Cl)ccc1OCc1ccccc1Cl | 6.08 µM
104 | CCn1c(C)c(C)c2cc(C(=O)N3CCN(c4cccc(C)c4C)CC3)ccc21 | 5.44 µM
